This note sets out measurements from PubChem BioAssay AID179 (DTP/NCI, 2004).

The subject of the assay is CEM cells HIV-1 protection, formazan growth assay. Kind of assay: NCI AIDS Antiviral Assay. The conditions noted are these: for IC50: measured here: growth of uninfected CEM cells. An outline of the steps:
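Steps: treat uninfected and HIV-1-infected human CEM cells at five drug levels; quantify growth by soluble formazan; retest any compound reaching 50% protection; classify actives from the retest.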

The structures appear in SMILES notation. Active and inactive are the calls of the source.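 The calls were made as follows: active = compounds giving half or more protection of infected cells from virus-caused growth loss, again on retest; inactive = the rest.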

Regarding `C/C(=N\N(C)C)C(CN1CCCCC1)C(c1ccccc1)c1c(O)c2ccccc2oc1=O` (configuration not stated), the EC50 is more than 69.2 µM and the IC50 is more than 69.2 µM.
In the case of `COC(=O)/C=C(\C(=O)OC)c1cc(C)c2cc(C(C)C)ccc(C)c1-2`, the EC50 is more than 200 µM and the IC50 worked out at 28.2 µM.
The corresponding values for `COc1ccccc1Cn1[nH]c(=O)c2cc([N+](=O)[O-])ccc21` are more than 200 µM and 63.1 µM.
For `Cc1cc(N(CCC#N)CCC#N)ccc1/C(N=Nc1ccc([N+](=O)[O-])cc1)=N\NC(=O)c1ccccc1`, in that order: more than 200 µM and 16.2 µM.
The corresponding values for `CC(=O)O[C@]1(C)C(=O)OC2C1C(OC(=O)C=C(C)C)C[C@](C)(OC(C)=O)[C@H]1[C@H](O)C=C(C)[C@@H]21` (some centres not stated) are more than 269 µM and 10 µM.
Turning to `COc1ccc(-c2cc(-c3ccc(C)cc3)n(C3OC(COC(C)=O)C(OC(C)=O)C(OC(C)=O)C3OC(C)=O)c(=S)c2C#N)cc1` (configuration not stated), the EC50 is more than 200 µM and the IC50 was more than 200 µM.
`CCCCCCCCCCCCP(=O)(O)OCC(N)C(=O)O` (configuration not stated): the EC50 was more than 200 µM and the IC50 was determined as 83.2 µM.
In the case of `CC(C)(C)c1onc2c1C(=O)c1ccccc1-2`, the EC50 is more than 200 µM and the IC50 is 117 µM.
Regarding `CCn1c2c(c3ccccc31)CCSC2(C)CCN(C)C` (configuration not stated), the result was inactive.
Take `Cc1c(COC(=O)NC(C)C)c(COC(=O)NC(C)C)c2n1CS(=O)(=O)C2`: the EC50 is more than 200 µM and the IC50 was more than 200 µM.
Consider `Cn1c(COc2ccc(/C=N/NC(=O)CCC(=O)N/N=C/c3ccc(OCc4c[n+]5ccccc5n4C)cc3)cc2)c[n+]2ccccc12`, for which the concentration for a half-maximal effect (EC50) was 13.5 µM and the concentration for half-maximal inhibition (IC50) is 19.1 µM.
Turning to `COc1ccc(-c2cc3ccccc3[nH]c2=O)cc1OC`, the outcome was inactive.
For the compound `CC(NC(=O)C1CCCN1C(=O)OCc1ccccc1)C(=O)O` (configuration not stated), the EC50 was more than 776 µM and the IC50 was more than 776 µM.
Consider `CC(C)CCCC(C)C1CCC2[C@@H]3CCC4C[C@@H](CCCO)CC[C@]4(C)C3CC[C@]12C` (some centres not stated), for which the EC50 is more than 4.37 µM and the IC50 was more than 4.37 µM.
In the case of `Cn1c(NS(=O)(=O)c2ccccc2)nc2ccccc21`, the EC50 was more than 200 µM and the IC50 is more than 200 µM.
As for `CC(C)(C)C1COP(=O)(c2ccccc2)N(c2ccccc2)C1` (configuration not stated), the EC50 was more than 200 µM and the 50% inhibitory concentration (IC50) was 38 µM.
For `COc1cccc([C@@]2(O)c3c(ccc(O)c3OC)[C@H]2OC)c1OC`, the EC50 was more than 15.8 µM and the IC50 was more than 15.8 µM.
As for `CC(C)(C)C(=O)/C=C/c1ccc(Cl)cc1`, the EC50 was more than 32.4 µM and the IC50 was more than 32.4 µM.
`CN(c1ccc(Cl)cc1)S(=O)(=O)c1ccc([N+](=O)[O-])cc1`: the EC50 was more than 200 µM and the half-inhibitory concentration (IC50) is more than 200 µM.
`O=C(Nc1nc(=S)c2c(ncn2CCO)[nH]1)c1ccccc1`: the EC50 is more than 575 µM and the IC50 was 28.2 µM.
For `Cc1ccc([N+](=O)[O-])cc1NC(=O)N1CCCCC1C` (configuration not stated), in that order: more than 200 µM and more than 100 µM.
On to `COC(=O)c1ccccc1N=Cc1ccc(N(CCC#N)S(=O)(=O)c2ccccc2)cc1`, for which the EC50 is more than 562 µM and the IC50 was found to be 479 µM.
With `CC1=C(C(=O)N[C@@H](Cc2ccccc2)C(=O)O)N2C(=O)[C@@H](NC(=O)[C@@H](N)CC(C)C)[C@H]2SC1`, the 50% effective concentration (EC50) is 174 µM and the IC50 was more than 200 µM.
For the compound `O=C(CSc1nc(-c2ccccc2)c(-c2ccccc2)[nH]1)N/N=C/c1ccc(Cl)cc1`, the EC50 was more than 20.9 µM and the IC50 amounted to 12 µM.
The corresponding values for `CCOC(=O)CC(=O)C(=O)NNC1=NCCN1` are more than 200 µM and more than 200 µM.
In the case of `O=C(Nc1ccc(S(=O)(=O)Nc2ccc(N=Nc3ccccc3)cc2)cc1)C(SC1=NC=NC2=NC=NC21)SC1=NC=NC2=NC=NC21` (configuration not stated), the EC50 is more than 20 µM and the IC50 was found to be 3.16 µM.
For `O=C(CC(O)(C(F)(F)F)C(F)(F)F)c1cccc(Cl)c1`, in that order: more than 200 µM and 182 µM.

For orientation: EC50 means the concentration at which the effect is half-maximal. A word on the IC50: it is the concentration that inhibits the measured activity by half.
